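Grown in 96-well plates, cells were treated for 48 hours with each compound at five concentrations. Insufficient inhibition: endpoint recorded as highest concentration tested. GI50 is the concentration that inhibits growth by half. TGI: concentration producing complete growth inhibition.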
What was measured:
Experiment in all cases: NCI anticancer screen, dose series, 48 h
[1] = tested on: 786-0 renal
[2] = tested on: A498 renal
[3] = tested on: A549 NSCLC
[4] = tested on: ACHN renal
[5] = tested on: BT-549 breast
[6] = tested on: CAKI-1 renal
[7] = tested on: CCRF-CEM leukemia
[8] = tested on: COLO 205 colon
[9] = tested on: DU-145 prostate
[10] = tested on: EKVX NSCLC
[11] = tested on: HCC-2998 colon
[12] = tested on: HCT-116 colon
[13] = tested on: HCT-15 colon
[14] = tested on: HL-60(TB) leukemia
[15] = tested on: HOP-62 NSCLC
[16] = tested on: HOP-92 NSCLC
[17] = tested on: HS 578T breast
[18] = tested on: HT29 colon
[19] = tested on: IGROV1 ovarian
[20] = tested on: K-562 leukemia
[21] = tested on: KM12 colon
[22] = tested on: LOX IMVI melanoma
[23] = tested on: M14 melanoma
[24] = tested on: MALME-3M melanoma
[25] = tested on: MCF7 breast
[26] = tested on: MDA-MB-231 breast
[27] = tested on: MDA-MB-435
[28] = tested on: MDA-MB-468 breast
[29] = tested on: MOLT-4 leukemia
[30] = tested on: NCI-H226 lung
[31] = tested on: NCI-H23 lung
[32] = tested on: NCI-H460 lung
[33] = tested on: NCI-H522 lung
[34] = tested on: NCI/ADR-RES ovarian
[35] = tested on: OVCAR-3 ovarian
[36] = tested on: OVCAR-4 ovarian
[37] = tested on: OVCAR-5 ovarian
[38] = tested on: OVCAR-8 ovarian
[39] = tested on: PC-3 prostate
[40] = tested on: RPMI-8226 leukemia
[41] = tested on: RXF 393 renal
[42] = tested on: SF-268 CNS
[43] = tested on: SF-295 CNS
[44] = tested on: SF-539 CNS
[45] = tested on: SK-MEL-2 melanoma
[46] = tested on: SK-MEL-28 melanoma
[47] = tested on: SK-MEL-5 melanoma
[48] = tested on: SK-OV-3 ovarian
[49] = tested on: SN12C renal
[50] = tested on: SNB-19 CNS
[51] = tested on: SNB-75 CNS
[52] = tested on: SR leukemia
[53] = tested on: SW-620 colon
[54] = tested on: T-47D breast
[55] = tested on: TK-10 renal
[56] = tested on: U251 CNS
[57] = tested on: UACC-257 melanoma
[58] = tested on: UACC-62 melanoma
[59] = tested on: UO-31 renal

With COc1ccc(CCC2c3c(cc4c(c3OC)OCO4)CCN2C)cc1 (stereo unspecified) the GI50 [1] was 9.15 µM, the TGI [1] was 24 µM and the GI50 [2] was 18 µM. It also gave a TGI [2] of 64.6 µM, a GI50 [3] of 17 µM and a TGI [3] greater than 100 µM. It also gave a GI50 [4] of 8.95 µM, a TGI [4] of 45 µM and a GI50 [5] of 7.68 µM. It also gave a TGI [5] of 20.1 µM, a GI50 [6] of 9.84 µM and a TGI [6] of 38.8 µM. It also gave a GI50 [7] of 11.2 µM, a TGI [7] of 46.7 µM and a GI50 [8] of 5.99 µM. It also gave a TGI [8] of 21 µM, a GI50 [9] of 20.1 µM and a TGI [9] of 86.2 µM. For the same molecule, the GI50 [10] was 16.1 µM, the TGI [10] was 67.7 µM and the GI50 [11] was 10.7 µM. The TGI [11] was 25.7 µM, the GI50 [12] was 3.35 µM and the TGI [12] was 13.8 µM. The GI50 [13] was 9.8 µM, the TGI [13] was 34.8 µM and the GI50 [14] was 3.01 µM. For the same molecule, the TGI [14] was 18 µM, the GI50 [15] was 7.41 µM and the TGI [15] was 46.3 µM. The GI50 [16] was 5.16 µM, the TGI [16] was 23.4 µM and the GI50 [17] was 10.4 µM. It also gave a TGI [17] of 41.8 µM, a GI50 [18] of 3.63 µM and a TGI [18] of 20.9 µM. It also gave a GI50 [19] of 5.72 µM, a TGI [19] of 22.1 µM and a GI50 [20] of 3.94 µM. The TGI [20] was 24.6 µM, the GI50 [21] was 12.6 µM and the TGI [21] was 33.2 µM. The GI50 [22] was 3.14 µM, the TGI [22] was 12.6 µM and the GI50 [23] was 7.17 µM. For the same molecule, the TGI [23] was 23.2 µM, the GI50 [24] was 14.2 µM and the TGI [24] was 27.5 µM. The GI50 [25] was 10.4 µM, the TGI [25] was 24.3 µM and the GI50 [26] was 9.13 µM. For the same molecule, the TGI [26] was 22.6 µM, the GI50 [27] was 3.78 µM and the TGI [27] was 17.1 µM. The GI50 [28] was 6.81 µM, the TGI [28] was 21.6 µM and the GI50 [29] was 6.39 µM. It also gave a TGI [29] of 32.8 µM, a GI50 [30] of 7.04 µM and a TGI [30] of 25.6 µM. For the same molecule, the GI50 [31] was 6.56 µM, the TGI [31] was 31.7 µM and the GI50 [32] was 4.76 µM. The TGI [32] was 19.1 µM, the GI50 [33] was 12.1 µM and the TGI [33] was 27.1 µM. It also gave a GI50 [34] of 9.23 µM, a TGI [34] of 26.2 µM and a GI50 [35] of 10.9 µM. The TGI [35] was 29.3 µM, the GI50 [36] was 17.2 µM and the TGI [36] was 99.2 µM. For the same molecule, the GI50 [37] was 5.98 µM, the TGI [37] was 28.8 µM and the GI50 [38] was 13.1 µM. The TGI [38] was 30.5 µM, the GI50 [39] was 9.52 µM and the TGI [39] was 35.1 µM. The GI50 [40] was 4.05 µM, the TGI [40] was 27.4 µM and the GI50 [41] was 6.99 µM. For the same molecule, the TGI [41] was 30.6 µM, the GI50 [42] was 14.3 µM and the TGI [42] was greater than 100 µM. It also gave a GI50 [43] of 3.5 µM, a TGI [43] of 17.2 µM and a GI50 [44] of 4.91 µM. It also gave a TGI [44] of 16.8 µM, a GI50 [45] of 14.6 µM and a TGI [45] of 36.7 µM. The GI50 [46] was 10.2 µM, the TGI [46] was 22.5 µM and the GI50 [47] was 10.4 µM. It also gave a TGI [47] of 22.2 µM, a GI50 [48] of 17.3 µM and a TGI [48] of 43.3 µM. It also gave a GI50 [49] of 7.05 µM, a TGI [49] of 37.4 µM and a GI50 [50] of 15 µM. It also gave a TGI [50] greater than 100 µM, a GI50 [51] of 13.5 µM and a TGI [51] of 70.5 µM. For the same molecule, the GI50 [52] was 3.94 µM, the TGI [52] was 24 µM and the GI50 [53] was 3.93 µM. It also gave a TGI [53] of 16.8 µM, a GI50 [54] of 6.92 µM and a TGI [54] of 29.6 µM. For the same molecule, the GI50 [55] was 10.6 µM, the TGI [55] was 31.8 µM and the GI50 [56] was 13.6 µM. It also gave a TGI [56] of 46.5 µM, a GI50 [57] of 13.4 µM and a TGI [57] of 28.2 µM. For the same molecule, the GI50 [58] was 10.6 µM, the TGI [58] was 23.2 µM and the GI50 [59] was 8.73 µM. The TGI [59] was 54.1 µM.

In the case of CC1(C)CC[C@]2(C(=O)N3CCOCC3)CC[C@]3(C)C(=CC[C@@H]4[C@@]5(C)CC[C@H](NCO)C(C)(C)[C@@H]5CC[C@]43C)[C@H]2C1, the GI50 [1] is reported as 0.596 µM, the TGI [1] is reported as 1.31 µM and the GI50 [2] is reported as 5.59 µM. It also gave a TGI [2] of 10.9 µM, a GI50 [3] of 1.58 µM and a TGI [3] of 7.01 µM. For the same molecule, the GI50 [4] was 1.72 µM, the TGI [4] was 6.11 µM and the GI50 [5] was 6.38 µM. For the same molecule, the TGI [5] was 12.9 µM, the GI50 [6] was 0.915 µM and the TGI [6] was 2.98 µM. For the same molecule, the GI50 [7] was 1.04 µM, the TGI [7] was 3.23 µM and the GI50 [8] was 0.795 µM. For the same molecule, the TGI [8] was 1.99 µM, the GI50 [9] was 1.38 µM and the TGI [9] was 5.01 µM. For the same molecule, the GI50 [10] was 4.57 µM, the TGI [10] was 10 µM and the GI50 [11] was 0.836 µM. For the same molecule, the TGI [11] was 2.31 µM, the GI50 [12] was 0.696 µM and the TGI [12] was 1.58 µM. It also gave a GI50 [13] of 0.715 µM, a TGI [13] of 1.76 µM and a GI50 [14] of 0.484 µM. It also gave a TGI [14] of 1.22 µM, a GI50 [15] of 8.18 µM and a TGI [15] of 18.6 µM. For the same molecule, the GI50 [16] was 5.25 µM, the TGI [16] was 11.3 µM and the GI50 [17] was 5.22 µM. For the same molecule, the TGI [17] was 12.5 µM, the GI50 [18] was 1.96 µM and the TGI [18] was 18.6 µM. The GI50 [19] was 4.66 µM, the TGI [19] was 9.78 µM and the GI50 [20] was 0.811 µM. The TGI [20] was 33.8 µM, the GI50 [21] was 1.14 µM and the TGI [21] was 4.26 µM. The GI50 [22] was 0.576 µM, the TGI [22] was 1.06 µM and the GI50 [23] was 4.11 µM. For the same molecule, the TGI [23] was 9.71 µM, the GI50 [24] was 5.2 µM and the TGI [24] was 9.97 µM. For the same molecule, the GI50 [25] was 0.73 µM, the TGI [25] was 2.06 µM and the GI50 [26] was 1.83 µM. For the same molecule, the TGI [26] was 5.89 µM, the GI50 [27] was 0.998 µM and the TGI [27] was 5.1 µM. For the same molecule, the GI50 [28] was 0.647 µM, the TGI [28] was 1.4 µM and the GI50 [29] was 0.767 µM. It also gave a TGI [29] of 2.68 µM, a GI50 [30] of 6.61 µM and a TGI [30] of 13.6 µM. It also gave a GI50 [31] of 3.74 µM, a TGI [31] of 8.72 µM and a GI50 [32] of 1.02 µM. It also gave a TGI [32] of 3.29 µM, a GI50 [33] of 6.27 µM and a TGI [33] of 13.8 µM. For the same molecule, the GI50 [34] was 1.99 µM, the TGI [34] was 7.09 µM and the GI50 [35] was 0.961 µM. For the same molecule, the TGI [35] was 3.43 µM, the GI50 [36] was 2.5 µM and the TGI [36] was 7.62 µM. For the same molecule, the GI50 [37] was 4.47 µM, the TGI [37] was 9.1 µM and the GI50 [38] was 1.52 µM. The TGI [38] was 6.3 µM, the GI50 [39] was 4.6 µM and the TGI [39] was 10.6 µM. For the same molecule, the GI50 [40] was 1.42 µM, the TGI [40] was 7.17 µM and the GI50 [41] was 0.886 µM. The TGI [41] was 2.69 µM, the GI50 [42] was 4.78 µM and the TGI [42] was 10.4 µM. It also gave a GI50 [43] of 1.86 µM, a TGI [43] of 6.7 µM and a GI50 [44] of 1.12 µM. For the same molecule, the TGI [44] was 4.29 µM, the GI50 [45] was 5.95 µM and the TGI [45] was 11.4 µM. For the same molecule, the GI50 [46] was 5.16 µM, the TGI [46] was 9.94 µM and the GI50 [47] was 5.65 µM. It also gave a TGI [47] of 11 µM, a GI50 [48] of 6.81 µM and a TGI [48] of 13.3 µM. For the same molecule, the GI50 [49] was 2.36 µM, the TGI [49] was 6.94 µM and the GI50 [50] was 5.71 µM. For the same molecule, the TGI [50] was 11.3 µM, the GI50 [51] was 4.39 µM and the TGI [51] was 9.51 µM. The GI50 [52] was 0.682 µM, the TGI [52] was 2.14 µM and the GI50 [53] was 0.552 µM. The TGI [53] was 1.06 µM, the GI50 [54] was 5.33 µM and the TGI [54] was 15.6 µM. For the same molecule, the GI50 [55] was 7.05 µM, the TGI [55] was 13.5 µM and the GI50 [56] was 4.14 µM. For the same molecule, the TGI [56] was 9.49 µM, the GI50 [57] was 5.65 µM and the TGI [57] was 10.7 µM. The GI50 [58] was 5.86 µM, the TGI [58] was 10.7 µM and the GI50 [59] was 4.62 µM. It also gave a TGI [59] of 9.34 µM.
